According to patent publication US11091482B2, “Isoxazolyl-carbonyloxy azabicyclo[3.2.1]octanyl compounds as FXR activators” (ARDELYX, INC., priority 2016, dated 2021):
Each block holds one molecule with its values, some of them ahead of it.

Columns and labels:
[1] = molecular target: human Farnesoid X receptor ligand-binding domain/Gal4 DNA binding domain chimera (Homo sapiens (Human), UniProt Q96RI1); assay: Cell-based FXR beta-lactamase reporter assay (FXR-UAS-bla HEK 293T cells); details: for FXR pEC50 / % Efficacy / EC50: cellular FXR beta-lactamase reporter assay; for FXR pEC50 / EC50: -log EC50; for % Efficacy: extent of activation relative to GW4064; for Emax: HEK-293T, read-out: % Efficacy; for EC50: read-out: FXR pEC50 (converted)
Sequence of human Farnesoid X receptor ligand-binding domain/Gal4 DNA binding domain chimera (Q96RI1 262-486, stated change not applied): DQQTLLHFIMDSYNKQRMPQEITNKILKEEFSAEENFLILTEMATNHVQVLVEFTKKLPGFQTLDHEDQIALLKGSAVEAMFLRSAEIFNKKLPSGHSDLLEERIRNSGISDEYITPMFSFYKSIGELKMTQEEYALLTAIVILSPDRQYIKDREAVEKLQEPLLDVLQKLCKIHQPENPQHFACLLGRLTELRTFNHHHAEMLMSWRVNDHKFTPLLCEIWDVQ
Experimental: FXR activation was measured using a cell line and procedure obtained from Life Technologies (Cat #K1691). FXR-UAS-bla HEK 293T cells contain a human Farnesoid X receptor ligand-binding domain/Gal4 DNA binding domain chimera stably integrated into the CellSensor® UAS-bla HEK 293T cell line. The CellSensor® UAS-bla HEK 293T contains a beta-lactamase reporter gene under control of a UAS response element stably integrated into HEK 293T cells. Activation of FXR by bound ligands results in transcriptional activation of the beta-lactamase reporter gene, which is detected via assay of beta-lactamase activity. Cells are harvested and diluted into assay medium containing phenol red-free DMEM supplemented with 2% Charcoal-stripped FBS, pyruvate, non-essential amino acids. Cells are then transferred to a 384 well assay plate. Test compounds are dissolved in DMSO and a 3-fold serial dilution series is generated, then further diluted into assay medium. […] A FRET-based […] is loaded into cells as its acetomethoxy ester. Intracellular esterases liberate free CCF4, a cephalosporin core linking 7-hydroxycoumarin to fluorescein. In the presence of beta-lactamase activity produced in the presence of FXR agonists, cleavage of CCF4 spatially separates the two dyes and disrupts FRET, so that exciting the coumarin at 409 nm now produces a blue fluorescence signal at 447 nm. The change in FRET signal is plotted against the test compound concentration and fit to a 3-parameter logistical equation.

[2] = molecular target: ligand binding domain of human FXR (Homo sapiens (Human), UniProt Q96RI1); assay: FXR ligand binding assay (LanthaScreen FRET); details: for % Efficacy: extent of activation relative to GW4064; for Emax: read-out: % Efficacy;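 on all read-outs here: TR-FRET coactivator recruitment: ligand-induced binding of fluorescein-labelled SRC2-2 peptide to GST-tagged FXR LBD detected via Tb anti-GST antibody, serial compound dilutions, 3-parameter logistic fit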
Sequence of ligand binding domain of human FXR (Q96RI1 262-486): as the sequence (Q96RI1 262-486, stated change not applied) above

[3] = FXR ligand binding assay, -log EC50

SMILES: CC(C)S(=O)(=O)NC(=O)c1ccc(N2[C@@H]3CC[C@H]2C[C@@H](OC(=O)c2c(-c4c(Cl)cccc4Cl)noc2C2CC2)C3)cc1 [Compound I-47, (1R,3R,5S)-8-{4-[(propane-2-sulfonyl)carbamoyl]phenyl}-8-azabicyclo[3.2.1]octan-3-yl 5-cyclopropyl-3-(2,6-dichlorophenyl)-1,2-oxazole-4-carboxylate]
- FXR pEC50 [1]: 8.5
- % Efficacy [1]: 124%
- FXR pEC50 [2, 3]: 7.8
- % Efficacy ([2]; FXR ligand binding assay): 168%

SMILES: O=C(NS(=O)(=O)CCCO)c1ccc(N2[C@@H]3CC[C@H]2C[C@@H](OC(=O)c2c(-c4c(Cl)cccc4Cl)noc2C2CC2)C3)cc1 [Compound I-50, (1R,3R,5S)-8-{4-[(3-hydroxypropanesulfonyl)carbamoyl]phenyl}-8-azabicyclo[3.2.1]octan-3-yl 5-cyclopropyl-3-(2,6-dichlorophenyl)-1,2-oxazole-4-carboxylate]
- Emax [1]: 102%
- EC50 [1]: 158 nM

SMILES: O=C(O)c1cc(F)c2nc(N3[C@@H]4CC[C@H]3C[C@@H](OC(=O)c3c(C5CCC6(CC5)CC6)noc3C3CC3)C4)sc2c1 [Compound I-19, 2-[(1R,3R,5S)-3-(5-cyclopropyl-3-{spiro[2.5]octan-6-yl}-1,2-oxazole-4-carbonyloxy)-8-azabicyclo[3.2.1]octan-8-yl]-4-fluoro-1,3-benzothiazole-6-carboxylic Acid]
- FXR pEC50 [1]: 6.8
- % Efficacy [1]: 79%
- FXR pEC50 [2, 3]: 7.2
- % Efficacy ([2]; FXR ligand binding assay): 55%

SMILES: CS(=O)(=O)NC(=O)c1ccc(N2[C@@H]3CC[C@H]2C[C@@H](OC(=O)c2c(-c4c(Cl)cccc4Cl)noc2C2CC2)C3)cc1 [Compound I-44, (1R,3R,5S)-8-[4-(methanesulfonylcarbamoyl)phenyl]-8-azabicyclo[3.2.1]octan-3-yl 5-cyclopropyl-3-(2,6-dichlorophenyl)-1,2-oxazole-4-carboxylate]
- Emax [1]: 117%
- EC50 [1]: 6.31 nM
- Emax [2]: 124%

SMILES: Cc1cc(C(=O)O)cc2sc(N3[C@@H]4CC[C@H]3C[C@@H](OC(=O)c3c(-c5ccccc5C(F)(F)F)noc3C3CC3)C4)nc12 [Compound I-61, 2-[(1R,3R,5S)-3-{5-cyclopropyl-3-[2-(trifluoromethyl)phenyl]-1,2-oxazole-4-carbonyloxy}-8-azabicyclo[3.2.1]octan-8-yl]-4-methyl-1,3-benzothiazole-6-carboxylic Acid]
- Emax [1]: 102%
- EC50 [1]: 10 nM
- FXR pEC50 [2, 3]: 7.1
- Emax [2]: 139%

SMILES: CCCCCS(=O)(=O)NC(=O)c1ccc(N2[C@@H]3CC[C@H]2C[C@@H](OC(=O)c2c(-c4c(Cl)cccc4Cl)noc2C2CC2)C3)cc1 [Compound I-46, (1R,3R,5S)-8-{4-[(pentane-1-sulfonyl)carbamoyl]phenyl}-8-azabicyclo[3.2.1]octan-3-yl 5-cyclopropyl-3-(2,6-dichlorophenyl)-1,2-oxazole-4-carboxylate]
- FXR pEC50 [1]: 8.5
- % Efficacy [1]: 110%
- FXR pEC50 [2, 3]: 8.2

SMILES: N#Cc1ccc(N2[C@@H]3CC[C@H]2C[C@@H](OC(=O)c2c(-c4c(Cl)cccc4Cl)noc2C2CC2)C3)cc1O [Compound I-53, (1R,3R,5S)-8-(4-cyano-3-hydroxyphenyl)-8-azabicyclo[3.2.1]octan-3-yl 5-cyclopropyl-3-(2,6-dichlorophenyl)-1,2-oxazole-4-carboxylate]
- Emax [1]: 81%
- EC50 [1]: 251 nM
- Emax [2]: 58%

- FXR pEC50 [1]: 8.1
- % Efficacy [1]: 116%
- FXR pEC50 [2, 3]: 7.6
- % Efficacy ([2]; FXR ligand binding assay): 147%
SMILES: O=C(O)c1cc(F)c2nc(N3[C@@H]4CC[C@H]3C[C@@H](OC(=O)c3c(-c5ccccc5OC(F)(F)F)noc3C3CC3)C4)sc2c1 [Compound I-14, 2-[(1R,3R,5S)-3-{5-cyclopropyl-3-[2-(trifluoromethoxy)phenyl]-1,2-oxazole-4-carbonyloxy}-8-azabicyclo[3.2.1]octan-8-yl]-4-fluoro-1,3-benzothiazole-6-carboxylic Acid]

SMILES: CS(=O)(=O)NC(=O)c1cc(F)c2nc(N3[C@@H]4CC[C@H]3C[C@@H](OC(=O)c3c(-c5c(Cl)cccc5Cl)noc3C3CC3)C4)sc2c1 [Compound I-6, (1R,3R,5S)-8-[4-fluoro-6-(methanesulfonylcarbamoyl)-1,3-benzothiazol-2-yl]-8-azabicyclo[3.2.1]octan-3-yl 5-cyclopropyl-3-(2,6-dichlorophenyl)-1,2-oxazole-4-carboxylate]
- Emax [1]: 109%
- EC50 [1]: 15.8 nM
- Emax [2]: 110%

SMILES: O=C(O)c1cc(F)c2nc(N3[C@@H]4CC[C@H]3C[C@@H](OC(=O)c3c(-c5c(F)cccc5F)noc3C3CC3)C4)sc2c1 [Compound I-16, 2-[(1R,3R,5S)-3-[5-cyclopropyl-3-(2,6-difluorophenyl)-1,2-oxazole-4-carbonyloxy]-8-azabicyclo[3.2.1]octan-8-yl]-4-fluoro-1,3-benzothiazole-6-carboxylic Acid]
- FXR pEC50 [1]: 6.7
- % Efficacy [1]: 110%
- FXR pEC50 [2, 3]: 7.4
- % Efficacy ([2]; FXR ligand binding assay): 47%

SMILES: COc1cc(C(=O)O)ccc1N1[C@@H]2CC[C@H]1C[C@@H](OC(=O)c1c(-c3c(Cl)cccc3Cl)noc1C1CC1)C2 [Compound I-40, 4-[(1R,3R,5S)-3-[5-cyclopropyl-3-(2,6-dichlorophenyl)-1,2-oxazole-4-carbonyloxy]-8-azabicyclo[3.2.1]octan-8-yl]-3-methoxybenzoic acid]
- Emax [1]: 117%
- EC50 [1]: 39.8 nM
- EC50 ([2]; FXR ligand binding assay, -log EC50, read-out: FXR pEC50 (converted)): 63.1 nM
- Emax [2]: 103%

SMILES: COc1cc(C(=O)O)cc2sc(N3[C@@H]4CC[C@H]3C[C@@H](OC(=O)c3c(-c5c(F)cccc5F)noc3C3CC3)C4)nc12 [Compound I-17, 2-[(1R,3R,5S)-3-[5-cyclopropyl-3-(2,6-difluorophenyl)-1,2-oxazole-4-carbonyloxy]-8-azabicyclo[3.2.1]octan-8-yl]-4-methoxy-1,3-benzothiazole-6-carboxylic Acid]
- Emax [1]: 112%
- EC50 [1]: 126 nM
- Emax [2]: 44%

SMILES: O=C(O)c1ccc(N2[C@@H]3CC[C@H]2C[C@@H](OC(=O)c2c(-c4c(Cl)cccc4Cl)noc2C2CC2)C3)cc1C(F)(F)F [Compound I-37, 4-[(1R,3R,5S)-3-[5-cyclopropyl-3-(2,6-dichlorophenyl)-1,2-oxazole-4-carbonyloxy]-8-azabicyclo[3.2.1]octan-8-yl]-2-(trifluoromethyl)benzoic acid]
- Emax [1]: 93%
- EC50 [1]: 100 nM
- FXR pEC50 [2, 3]: 7.7
- Emax [2]: 50%

SMILES: COc1cc(N2[C@@H]3CC[C@H]2C[C@@H](OC(=O)c2c(-c4c(Cl)cccc4Cl)noc2C2CC2)C3)ccc1C(=O)O [Compound I-39, 4-[(1R,3R,5S)-3-[5-cyclopropyl-3-(2,6-dichlorophenyl)-1,2-oxazole-4-carbonyloxy]-8-azabicyclo[3.2.1]octan-8-yl]-2-methoxybenzoic acid]
- Emax [1]: 114%
- EC50 [1]: 100 nM
- FXR pEC50 [2, 3]: 6.8
- Emax [2]: 64%

SMILES: NC(=O)c1cc(F)c2nc(N3[C@@H]4CC[C@H]3C[C@@H](OC(=O)c3c(-c5c(Cl)cccc5Cl)noc3C3CC3)C4)sc2c1 [Compound I-3, (1R,3R,5S)-8-(6-carbamoyl-4-fluoro-1,3-benzothiazol-2-yl)-8-azabicyclo[3.2.1]octan-3-yl 5-cyclopropyl-3-(2,6-dichlorophenyl)-1,2-oxazole-4-carboxylate]
- Emax [2]: 60%

SMILES: COc1cc2nc(N3[C@@H]4CC[C@H]3C[C@@H](OC(=O)c3c(C56CCC(CC5)CC6)noc3C3CC3)C4)sc2cc1C(=O)O [Compound I-22, 2-[(1R,3R,5S)-3-(3-{bicyclo[2.2.2]octan-1-yl}-5-cyclopropyl-1,2-oxazole-4-carbonyloxy)-8-azabicyclo[3.2.1]octan-8-yl]-5-methoxy-1,3-benzothiazole-6-carboxylic Acid]
- Emax [1]: 44%
- EC50 [1]: 398 nM

SMILES: COc1cc(C(=O)O)cc2sc(N3[C@@H]4CC[C@H]3C[C@@H](OC(=O)c3c(C56CCC(CC5)CC6)noc3C3CC3)C4)nc12 [Compound I-21, 2-[(1R,3R,5S)-3-(3-{bicyclo[2.2.2]octan-1-yl}-5-cyclopropyl-1,2-oxazole-4-carbonyloxy)-8-azabicyclo[3.2.1]octan-8-yl]-4-methoxy-1,3-benzothiazole-6-carboxylic Acid]
- Emax [1]: 44%

SMILES: O=C(O)c1cccc(S(=O)(=O)N2[C@@H]3CC[C@H]2C[C@@H](OC(=O)c2c(-c4c(Cl)cccc4Cl)noc2C2CC2)C3)c1 [Compound I-55, 3-{[(1R,3R,5S)-3-[5-cyclopropyl-3-(2,6-dichlorophenyl)-1,2-oxazole-4-carbonyloxy]-8-azabicyclo[3.2.1]octan-8-yl]sulfonyl}benzoic Acid]
- Emax [1]: 96%
- EC50 [1]: 1000 nM

SMILES: Cn1c(N2[C@@H]3CC[C@H]2C[C@@H](OC(=O)Cc2c(-c4c(Cl)cccc4Cl)noc2C2CC2)C3)nc2c(F)cc(C(=O)O)cc21 [Compound I-33, 2-[(1R,3R,5S)-3-({2-[5-cyclopropyl-3-(2,6-dichlorophenyl)-1,2-oxazol-4-yl]acetyl}oxy)-8-azabicyclo[3.2.1]octan-8-yl]-4-fluoro-1-methyl-1H-1,3-benzodiazole-6-carboxylic Acid]
- Emax [1]: 72%
